Our source for the GI50 and TGI values is PubChem BioAssay (NCI).

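A five-concentration, 48-hour dose response in 96-well plates underlies each endpoint, interpolated linearly between surrounding concentrations. At the GI50, growth is halved. TGI is the concentration that stops growth completely.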

Among the test systems are A498 renal; HCT-116 colon; HS 578T breast; IGROV1 ovarian; NCI-H23 lung; NCI-H460 lung; NCI/ADR-RES ovarian; OVCAR-5 ovarian; RXF 393 renal; SK-MEL-2 melanoma.
What all share (test): inhibition of tumour cell growth, NCI panel, 48 h

Consider `COc1cc(CNc2nc3cc(N)cc(N)c3nc2-c2ccccc2)cc(OC)c1OC`, for which the GI50 was 6.34 µM in the assay with A498 renal; 9.84 µM in the assay on HCT-116 colon; 3 µM with HS 578T breast; 9.11 µM in the assay with IGROV1 ovarian; 8.64 µM with NCI-H23 lung; 1.53 µM with NCI-H460 lung. In addition, the GI50 was 10.2 µM in the assay with NCI/ADR-RES ovarian, 21.5 µM in the assay on OVCAR-5 ovarian, 7.47 µM with RXF 393 renal and 16.1 µM in the assay with SK-MEL-2 melanoma. For the same compound, the TGI with A498 renal is 14.7 µM; in the assay with HCT-116 colon, 19.1 µM; in the assay with HS 578T breast it was 33.4 µM; with IGROV1 ovarian it was greater than 50 µM; in the assay with NCI-H23 lung, 17 µM; in the assay on NCI-H460 lung it was greater than 50 µM. Further, the TGI with NCI/ADR-RES ovarian was 21.8 µM; with OVCAR-5 ovarian, greater than 50 µM; in the assay with RXF 393 renal it was 19.9 µM; in the assay on SK-MEL-2 melanoma, greater than 50 µM.
For `CCC(C(=O)c1cccs1)C(O)(C(F)(F)F)C(F)(F)F` (stereo not drawn), the TGI in the assay with A498 renal, with HCT-116 colon, in the assay with HS 578T breast, with IGROV1 ovarian, in the assay on NCI-H23 lung and in the assay on NCI-H460 lung was greater than 100 µM each time. The TGI in the assay with NCI/ADR-RES ovarian, in the assay with OVCAR-5 ovarian, with RXF 393 renal and in the assay with SK-MEL-2 melanoma was greater than 100 µM in each case.
In the case of `CC(N)(Cc1c[nH]c2ccccc12)C(=O)O` (stereo not drawn), the GI50 in the assay on A498 renal is greater than 2500 µM; with HCT-116 colon it was greater than 2500 µM; with HS 578T breast, 1090 µM; with IGROV1 ovarian, greater than 2500 µM; in the assay with NCI-H23 lung, greater than 2500 µM; with NCI-H460 lung, greater than 2500 µM. The GI50 with NCI/ADR-RES ovarian, in the assay with OVCAR-5 ovarian, in the assay on RXF 393 renal and with SK-MEL-2 melanoma was greater than 2500 µM each time. Further, the TGI in the assay on A498 renal, in the assay on HCT-116 colon, in the assay on HS 578T breast, with IGROV1 ovarian, in the assay on NCI-H23 lung and in the assay with NCI-H460 lung was greater than 2500 µM throughout. Moreover, the TGI with NCI/ADR-RES ovarian, in the assay on OVCAR-5 ovarian, with RXF 393 renal and in the assay with SK-MEL-2 melanoma was greater than 2500 µM throughout.
Regarding `Clc1nc(Cl)c2ncn(C/C=C/Cn3cnc4c(Cl)nc(Cl)nc43)c2n1`, the GI50 is 21.5 µM with A498 renal; 10.7 µM with HCT-116 colon; 14.6 µM with HS 578T breast; 11.8 µM in the assay with IGROV1 ovarian; 18.7 µM in the assay on NCI-H23 lung; 20 µM in the assay with NCI-H460 lung. The GI50 in the assay with NCI/ADR-RES ovarian is 20.1 µM; in the assay on OVCAR-5 ovarian, 19.5 µM; in the assay with RXF 393 renal, 2.3 µM; with SK-MEL-2 melanoma, 14.2 µM. Moreover, the TGI in the assay with A498 renal came to 41.2 µM; in the assay with HCT-116 colon, 24.4 µM; in the assay with HS 578T breast it was 35.1 µM; with IGROV1 ovarian, 25.7 µM; in the assay on NCI-H23 lung, 38 µM; with NCI-H460 lung it was 40.7 µM. Further, the TGI is 44.6 µM in the assay on NCI/ADR-RES ovarian, 35.1 µM in the assay with OVCAR-5 ovarian, 6.42 µM in the assay on RXF 393 renal and 29.3 µM in the assay with SK-MEL-2 melanoma.
Turning to `COc1ccc(S(=O)(=O)NC2=NCCN2C(=S)SN2CCn3c2nsc3=S)cc1OC`, the GI50 was 37.3 µM with A498 renal; 19.2 µM in the assay with HCT-116 colon; 28.4 µM with HS 578T breast; 23.2 µM in the assay on IGROV1 ovarian; 22.4 µM in the assay with NCI-H23 lung; 28.1 µM in the assay on NCI-H460 lung. In addition, the GI50 with NCI/ADR-RES ovarian was 61.8 µM; in the assay with OVCAR-5 ovarian, 20.8 µM; with RXF 393 renal it was 3.1 µM; with SK-MEL-2 melanoma, 24.1 µM. In addition, the TGI in the assay with A498 renal was greater than 100 µM; in the assay with HCT-116 colon, 40 µM; with HS 578T breast it was greater than 100 µM; with IGROV1 ovarian it was greater than 100 µM; in the assay with NCI-H23 lung, 53 µM; in the assay with NCI-H460 lung, greater than 100 µM. Also, the TGI is greater than 100 µM in the assay on NCI/ADR-RES ovarian, 40.4 µM with OVCAR-5 ovarian, 13 µM in the assay with RXF 393 renal and 75.1 µM in the assay on SK-MEL-2 melanoma.
`COc1ccc2c(c1)C(=O)c1c-2c(OCCN(C)C)nc2cc(OC)ccc12`: the GI50 is 1.39 µM in the assay with A498 renal; 0.344 µM with HCT-116 colon; 2.84 µM with HS 578T breast; 1.01 µM in the assay with IGROV1 ovarian; 1.36 µM in the assay on NCI-H23 lung; 0.411 µM with NCI-H460 lung. In addition, the GI50 in the assay on NCI/ADR-RES ovarian was 0.695 µM; with OVCAR-5 ovarian it was 1.9 µM; in the assay with RXF 393 renal it was 1.54 µM; with SK-MEL-2 melanoma, 3.31 µM. For the same compound, the TGI worked out at 3.07 µM in the assay on A498 renal; 1.41 µM in the assay on HCT-116 colon; 9.76 µM with HS 578T breast; 6.03 µM in the assay on IGROV1 ovarian; 3.5 µM in the assay on NCI-H23 lung; 1.51 µM in the assay on NCI-H460 lung. Further, the TGI in the assay with NCI/ADR-RES ovarian came to 4.2 µM; with OVCAR-5 ovarian, 4.65 µM; with RXF 393 renal, 4.52 µM; with SK-MEL-2 melanoma, 10.3 µM.
As to `CC(C)(C)OC(=O)N1CC(Cn2cc(C(F)(F)F)c3c(Cl)ncnc32)C1`, the GI50 in the assay with A498 renal is 4.81 µM; with HCT-116 colon, 1.86 µM; with HS 578T breast, 2.36 µM; in the assay with IGROV1 ovarian, 1.86 µM; with NCI-H23 lung, 1.84 µM; with NCI-H460 lung, 2.06 µM. Besides, the GI50 with NCI/ADR-RES ovarian is 13.9 µM; in the assay with OVCAR-5 ovarian it was 20.5 µM; in the assay on RXF 393 renal it was 1.43 µM; in the assay on SK-MEL-2 melanoma it was 1.84 µM. The TGI turned out to be 16.8 µM in the assay with A498 renal; 3.35 µM with HCT-116 colon; 6.55 µM with HS 578T breast; 3.92 µM in the assay with IGROV1 ovarian; 3.58 µM with NCI-H23 lung; 3.99 µM with NCI-H460 lung. Moreover, the TGI with NCI/ADR-RES ovarian worked out at 65.4 µM; in the assay on OVCAR-5 ovarian it was 57.5 µM; in the assay with RXF 393 renal, 3.59 µM; with SK-MEL-2 melanoma, 3.47 µM.
On to `C[n+]1c2cc(N)ccc2cc2ccc(N)cc21` (tested in a mixture with another compound), for which the GI50 in the assay on A498 renal is 0.133 µM; in the assay on HCT-116 colon, 0.345 µM; in the assay on HS 578T breast, 0.687 µM; in the assay on IGROV1 ovarian it was 0.14 µM; in the assay with NCI-H23 lung, 0.292 µM; with NCI-H460 lung, 0.269 µM. Besides, the GI50 in the assay on NCI/ADR-RES ovarian is 0.746 µM; in the assay with OVCAR-5 ovarian, 0.405 µM; in the assay on RXF 393 renal, 1.12 µM; in the assay with SK-MEL-2 melanoma, 1.62 µM. Besides, the TGI with A498 renal amounted to 0.515 µM; in the assay with HS 578T breast it was 3.56 µM; in the assay on IGROV1 ovarian, 1.48 µM; with NCI-H23 lung, 1.43 µM; in the assay with NCI/ADR-RES ovarian it was 4.84 µM; in the assay with OVCAR-5 ovarian it was 11.1 µM. Also, the TGI was determined as 3.41 µM in the assay on RXF 393 renal and 15.3 µM with SK-MEL-2 melanoma.
